Results taken from US4444758A, “Nonapeptide for treating addictive drug withdrawal conditions” (priority 1981, dated 1984).
Where no end group is shown, it is not given here.

Assays:
rats [1] = conditions: rat, in vivo
Protocol: (§1) Toxicological studies were carried out on 12 male and 12 female rats as well as on 3 male and 3 female dogs per dosage. For this purpose DSIP was dissolved in physiological sodium chloride solution and administered intravenously daily for 4 weeks in the dosages of 0.6, 1.8 and 6 mg/kg. At an interval of 2 weeks during these studies the hematological, hematochemical and the urine status were determined, and the electrocardiogram was recorded and analyzed
(§2) At the termination of the aforementioned studies all animals were painlessly killed and there followed the autopsy besides the removal of organ samples for histological investigations.

dogs [2] = conditions: dog, in vivo
Protocol: as §1, §2

[3] = test system: alcoholic or methadone- or heroin-dependent patients; conditions: human, in vivo
Protocol: Of the 25 alcoholic patients 8 were on admission already in delirium tremens to a medium to severe degrees. After the first subjective and objective withdrawal signs manifested themselves the patients received up to 4 intravenous infusions of in each case 0.0214 mg/kg of DSIP daily. For this purpose, the substance was dissolved in physiological sodium chloride solution and infused in the course of 5 minutes.
The duration of treatment amounted to a maximum of 3 days.

rats [4] = assay: 4-week intravenous toxicological study in rats
Protocol: as §1, §2

dogs [5] = assay: 4-week intravenous toxicological study in dogs
Protocol: as §1, §2

morphine-dependent mouse = assay: Inhibition of the naloxone-triggered withdrawal leaps of the morphine-dependent mouse; type: in vivo; conditions: 30 mg . kg^-1 s.c., positive control
Protocol: In order to produce the dependence a compressed tablet, which contained 75 mg of morphine (base) and which progressively dissolved with continuous liberation of the morphine, was implanted under the dorsal skin of male mice (weight about 22 g). On the third day after the implantation the morphine antagonist naloxone in a dosage of 0.1 mg/kg was administered subcutaneously to the animals in order to trigger off the withdrawal leaps.
After the injection, the leaps of each individual animal were counted for 20 minutes. The group median value was calculated from the total leaps of 8 animals, which formed a group. As the positive control the animals of one group received 30 mg/kg of morphine subcutaneously 30 minutes before administration of the antagonist. Two to four groups received 10 ml/kg of physiological sodium chloride solution (negative control) 2 hours before the naloxone administration intravenously. The remaining groups received DSIP in various dosages (0.01, 0.015, 0.03, 0.06 and 0.1 mg/kg, intravenously and 0.03, 0.1 and 0.3 mg/kg, subcutaneously) 2 hours before the naloxone administration. The dosage median values and, respectively, control median values were calculated from all individual values per dosage and, respectively, the positive and negative controls.

[6] = maximum dosage (6 mg/kg i.v. daily for 4 weeks)

Compound | Tolerance of the dosages (side effects) (rats [1]) | Local tolerance at the injection sites (rats [1]; iv) | Tolerance of the dosages (side effects) (dogs [2]) | Local tolerance at the injection sites (dogs [2]; iv) | Tolerance of DSIP: poor, number of patients [3] | Histological analysis of about 30 organs and of the injection sites (rats [4]; i.v. daily for 4 weeks) | Changes in the electrocardiogram (rats [4]; [6]) | Hematological, hematochemical and urine values (rats [4]; [6]) | Histological analysis of about 30 organs and of the injection sites (dogs [5]; i.v. daily for 4 weeks) | Changes in the electrocardiogram (dogs [5]; [6]) | Hematological, hematochemical and urine values (dogs [5]; [6]) | Leaps/animal (median) (morphine-dependent mouse; 30 minutes before naloxone 0.1 mg/kg s.c., leaps counted for 20 minutes) | % of a negative control (morphine-dependent mouse; 30 minutes before naloxone)
WAGGDASGE [DSIP, Trp--Ala--Gly--Gly--Asp--Ala--Ser--Gly--Glu] | tolerated without any side effects | excellent | tolerated without any side effects | excellent | 2 patients | not the slightest evidence of damage to organs | no changes in the electrocardiogram | within the physiological limits | not the slightest evidence of damage to organs | no changes in the electrocardiogram | within the physiological limits |  | 
CN1CC[C@]23c4c5ccc(O)c4O[C@H]2[C@@H](O)C=C[C@H]3[C@H]1C5 [Morphine, morphine] |  |  |  |  |  |  |  |  |  |  |  | 43 Leaps/animal | 27%
